Like-named read-outs stand apart in the source and are kept apart here.

Format in all cases: cell-based
Assay [1] addresses T1, human muscarinic M2 receptor (Homo sapiens, UniProt P08172).
T1 sequence (P08172 1-466): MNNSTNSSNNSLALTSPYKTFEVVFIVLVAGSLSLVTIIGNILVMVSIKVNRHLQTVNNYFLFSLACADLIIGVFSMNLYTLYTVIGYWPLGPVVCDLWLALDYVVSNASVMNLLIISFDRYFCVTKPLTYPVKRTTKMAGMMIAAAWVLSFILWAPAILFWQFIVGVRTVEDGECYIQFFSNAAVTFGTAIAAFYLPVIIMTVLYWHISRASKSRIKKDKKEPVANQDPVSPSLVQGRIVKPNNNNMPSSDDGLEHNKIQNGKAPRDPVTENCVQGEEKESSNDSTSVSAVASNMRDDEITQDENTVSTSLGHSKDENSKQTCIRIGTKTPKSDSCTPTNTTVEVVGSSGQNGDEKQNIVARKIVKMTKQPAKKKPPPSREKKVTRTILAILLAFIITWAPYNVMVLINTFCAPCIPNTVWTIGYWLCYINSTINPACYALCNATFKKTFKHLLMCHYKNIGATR
Kind of assay: Alphascreen Surefire phospho-ERK1/2 functional assay, M2. As to conditions: for EC50: CHO cells stably expressing human M2, phospho-ERK1/2, read-out: pEC50 M2 (converted); for Emax: CHO, read-out: M2 % Emax cf. ACh. Put shortly:
(§1)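 Read-out: AlphaScreen SureFire signal for phospho-ERK1/2 in lysates of stably transfected CHO cells, read after 2 h in the dark. Cells were serum-starved overnight and given agonist for 5 min at 37 °C. Values are pEC50 and Emax.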

Assay [2] deals with T2, human muscarinic M1 receptor (Homo sapiens, UniProt P11229).
T2 sequence (P11229 1-460): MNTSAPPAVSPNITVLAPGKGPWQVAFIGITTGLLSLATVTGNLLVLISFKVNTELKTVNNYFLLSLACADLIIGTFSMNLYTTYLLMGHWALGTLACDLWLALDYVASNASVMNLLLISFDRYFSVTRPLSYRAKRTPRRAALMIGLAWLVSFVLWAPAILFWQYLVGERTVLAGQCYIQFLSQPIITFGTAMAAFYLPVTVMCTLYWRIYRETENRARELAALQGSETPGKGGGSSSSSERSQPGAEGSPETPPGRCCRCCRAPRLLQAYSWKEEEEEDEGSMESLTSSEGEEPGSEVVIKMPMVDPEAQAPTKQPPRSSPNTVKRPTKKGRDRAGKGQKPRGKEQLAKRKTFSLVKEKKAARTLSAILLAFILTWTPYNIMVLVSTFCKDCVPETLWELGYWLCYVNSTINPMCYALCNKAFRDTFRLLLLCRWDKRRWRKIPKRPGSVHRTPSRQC
Kind of assay: Alphascreen Surefire phospho-ERK1/2 functional assay, M1. As to conditions: for EC50 / M1 % Emax cf. ACh: CHO cells stably expressing human M1; for EC50: phospho-ERK1/2, read-out: pEC50 M1 (converted); for Emax: CHO. Put shortly:
as §1

The target of assay [3] is T3, human muscarinic M4 receptor (Homo sapiens, UniProt P08173).
T3 construct: expressed in transfected cells
T3 sequence (P08173 1-479): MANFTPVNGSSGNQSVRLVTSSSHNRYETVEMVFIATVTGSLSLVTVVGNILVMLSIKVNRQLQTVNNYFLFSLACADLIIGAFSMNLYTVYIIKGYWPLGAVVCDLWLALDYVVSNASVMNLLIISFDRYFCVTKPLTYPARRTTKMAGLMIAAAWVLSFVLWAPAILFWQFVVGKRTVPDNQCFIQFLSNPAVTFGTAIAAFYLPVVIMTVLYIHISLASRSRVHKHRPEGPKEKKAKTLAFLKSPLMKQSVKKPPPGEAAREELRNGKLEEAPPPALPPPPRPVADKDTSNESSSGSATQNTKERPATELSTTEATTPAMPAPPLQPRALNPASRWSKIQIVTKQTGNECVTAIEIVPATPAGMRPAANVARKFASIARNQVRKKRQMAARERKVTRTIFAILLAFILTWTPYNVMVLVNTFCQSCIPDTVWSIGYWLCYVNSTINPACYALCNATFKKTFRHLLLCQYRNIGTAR
The assay is described as follows: Alphascreen Surefire phospho-ERK1/2 functional assay, M4. As to conditions: for EC50 / M4 % Emax cf. ACh: CHO cells stably expressing human M4; for EC50: phospho-ERK1/2, read-out: pEC50 M4 (converted); for Emax: CHO. Put shortly: as §1

Assay [4] deals with T4, human muscarinic M3 receptor (Homo sapiens, UniProt P20309).
T4 construct: expressed in transfected cells
Kind of assay: Alphascreen Surefire phospho-ERK1/2 functional assay, M3. As to conditions: for EC50: CHO cells stably expressing human M3, phospho-ERK1/2, read-out: pEC50 M3 (converted); for Emax: CHO, read-out: M3 % Emax cf. ACh. The gist of the method: as §1
(In general: Alpha assays give light when donor and acceptor beads are brought close together.)

Where [5] appears, read: read-out: M1 % Emax cf. ACh, CHO cells stably expressing human M1, Emax relative to ACh.
The mark [6] stands for this setting: read-out: M4 % Emax cf. ACh, CHO cells stably expressing human M4, Emax relative to ACh.

T4 sequence (P20309 whole entry): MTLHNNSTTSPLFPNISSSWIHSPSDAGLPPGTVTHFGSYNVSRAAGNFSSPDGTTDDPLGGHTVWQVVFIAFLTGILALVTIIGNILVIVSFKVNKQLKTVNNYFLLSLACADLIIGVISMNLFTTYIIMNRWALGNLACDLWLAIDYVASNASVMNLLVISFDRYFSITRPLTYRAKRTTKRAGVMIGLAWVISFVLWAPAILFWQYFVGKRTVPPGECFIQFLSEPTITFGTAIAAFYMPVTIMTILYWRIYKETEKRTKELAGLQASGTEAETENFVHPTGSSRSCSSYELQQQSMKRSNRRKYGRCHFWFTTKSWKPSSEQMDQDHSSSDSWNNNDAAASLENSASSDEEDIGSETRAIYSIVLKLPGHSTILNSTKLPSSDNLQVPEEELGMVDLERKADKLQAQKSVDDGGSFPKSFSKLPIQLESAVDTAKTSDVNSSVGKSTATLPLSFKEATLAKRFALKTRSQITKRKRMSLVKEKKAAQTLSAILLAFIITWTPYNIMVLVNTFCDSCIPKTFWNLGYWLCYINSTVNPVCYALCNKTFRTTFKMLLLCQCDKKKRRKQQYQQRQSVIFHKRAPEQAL

Consider `CCOC(=O)N1CCCN(C2CCC3(CC2)C(=O)Nc2cc(OC)ccc23)CC1` (single isomer, unassigned) [4-11 isomer 2], for which the EC50 in assay [1] was more than 20 µM; in assay [2], 0.132 µM; in assay [3] it was 0.309 µM; in assay [4], more than 20 µM. Besides, the maximum response (Emax) stood at 9% in assay [1], 107% in assay [2] (setting [5]), 55% in assay [3] (setting [6]) and 2% in assay [4].
For the molecule `CCOC(=O)N1CCC2(CCN(C3CCC(C#N)(c4ccccc4)CC3)CC2)C1` (single isomer, unassigned) [13-1 Isomer 2], the EC50 in assay [1] is more than 20 µM; in assay [2], 0.000447 µM; in assay [3], 0.000145 µM; in assay [4], more than 20 µM. In addition, the Emax was determined as 21% in assay [1], 121% in assay [2] (read-out: M1 % Emax cf. ACh), 121% in assay [3] (read-out: M4 % Emax cf. ACh) and 7% in assay [4].
In the case of `CCOC(=O)N(C)[C@H]1CCN(C2CCC(C#N)(c3ccccc3)CC2)C1` (single isomer, unassigned) [1-20 Isomer 2], the EC50 in assay [1] is more than 20 µM; in assay [2] it was 0.148 µM; in assay [3], more than 20 µM; in assay [4], more than 20 µM. Further, the Emax stood at 0% in assay [1], 78% in assay [2] (read-out: M1 % Emax cf. ACh), 19% in assay [3] (read-out: M4 % Emax cf. ACh) and 0% in assay [4].
For the molecule `CCOC(=O)N(C)[C@@H]1CCN(C2CCC3(CC2)C(=O)Nc2ncccc23)C1` (single isomer, unassigned) [2-18 isomer 1], the EC50 in assay [1] was more than 20 µM; in assay [2], 0.148 µM; in assay [3], 0.174 µM; in assay [4], more than 20 µM. The Emax came to 21% in assay [1], 122% in assay [2] (setting [5]), 141% in assay [3] (setting [6]) and 11% in assay [4].
As for `CCOC(=O)N[C@H]1CCN(C2CCC3(CC2)C(=O)Nc2ccc(OC)cc23)C1` (single isomer, unassigned) [2-10 isomer 1], the EC50 was more than 20 µM in assay [1], 0.00794 µM in assay [2], more than 20 µM in assay [3] and more than 20 µM in assay [4]. Besides, the Emax is 27% in assay [1], 64% in assay [2] (setting [5]), 39% in assay [3] (setting [6]) and 4% in assay [4].
As to `CCOC(=O)N[C@H]1CCN(C2CCC3(CC2)C(=O)Nc2ccc(C)cc23)C1` (single isomer, unassigned) [2-5 isomer 1], the EC50 in assay [1] was more than 20 µM; in assay [2], 0.00776 µM; in assay [3] it was more than 15.8 µM; in assay [4], more than 20 µM. The Emax in assay [1] amounted to 13%; in assay [2] (setting [5]), 49%; in assay [3] (setting [6]) it was 5%; in assay [4], 15%.
Take `CCOC(=O)N[C@@H]1CCN(C2CCC(C#N)(c3ccccc3F)CC2)C1` (single isomer, unassigned) [1-5 Isomer 2]: the EC50 in assay [1] was more than 20 µM; in assay [2], 0.115 µM; in assay [3] it was more than 20 µM; in assay [4], more than 20 µM. Also, the Emax in assay [1] came to 5%; in assay [2] (setting [5]), 125%; in assay [3] (setting [6]), 46%; in assay [4] it was 33%.
Consider `CCOC(=O)NCC1CCN(C2CCC3(CC2)C(=O)Nc2ccccc23)CC1` (single isomer, unassigned) [7-2 isomer 1], for which the EC50 in assay [1] is more than 20 µM; in assay [2], 0.0759 µM; in assay [3], 0.17 µM; in assay [4] it was more than 20 µM. The figures for the maximal effect (Emax) in assay [1] and in assay [4] were 37% and 3%, respectively. For the same molecule, the “M1 % Emax cf. ACh” value in assay [2] (Emax relative to ACh) came out at 122%. The “M4 % Emax cf. ACh” value in assay [3] (Emax relative to ACh) was 32%.
With `CCOC(=O)N[C@H]1CCN(C2CCC3(CC2)C(=O)Nc2cc(F)ccc23)C1` (single isomer, unassigned) [2-7 isomer 2], the EC50 in assay [1] is more than 20 µM; in assay [2], 0.0525 µM; in assay [3], more than 20 µM; in assay [4] it was more than 20 µM. Also, the Emax was 5% in assay [1] and 2% in assay [4]. Also, in assay [2] (Emax relative to ACh), the “M1 % Emax cf. ACh” value is 89%. Further, the “M4 % Emax cf. ACh” value in assay [3] (Emax relative to ACh) is on record as 16%.
With `CCOC(=O)N1CCCN(C2CCC(C#N)(c3cccc(C)c3)CC2)CC1` (mixture of isomers) [3-8 mixture of isomers], the EC50 is more than 20 µM in assay [1], 0.0355 µM in assay [2], 0.105 µM in assay [3] and more than 20 µM in assay [4]. Moreover, the Emax in assay [1] was 18%; in assay [2] (setting [5]), 106%; in assay [3] (setting [6]) it was 62%; in assay [4], 7%.
In the case of `CCOC(=O)N[C@H]1CCN(C2CCC(C#N)(c3ccccc3)CC2)C1` (single isomer, unassigned) [1-1 Isomer 2], the EC50 in assay [1] is more than 20 µM; in assay [2], 0.0513 µM; in assay [3], more than 20 µM; in assay [4], more than 20 µM. Further, the maximal effect (Emax) in assay [1] stood at 3%; in assay [2] (setting [5]), 117%; in assay [3] (setting [6]), 18%; in assay [4], 18%.
Consider `Cc1ccc2c(c1)C1(CCC(N3CCC4(CC(c5nc(C)no5)C4)C3)CC1)C(=O)N2` (single isomer, unassigned) [26-1 Isomer 2], for which the EC50 in assay [1] is more than 20 µM; in assay [2], 0.0151 µM; in assay [3], 0.0407 µM; in assay [4], more than 20 µM. In addition, the Emax in assay [1] was 22%; in assay [2] (setting [5]), 74%; in assay [3] (setting [6]), 50%; in assay [4], 7%.
For `CCOC(=O)N1CCCN(C2CCC3(CC2)C(=O)Nc2ccc(C)cc23)CC1` (single isomer, unassigned) [4-7 isomer 1], the EC50 in assay [1] was more than 20 µM; in assay [2] it was 0.0447 µM; in assay [3] it was 5.37 µM; in assay [4], more than 20 µM. Also, the Emax in assay [1] came out at 16%; in assay [2] (setting [5]), 115%; in assay [3] (setting [6]), 100%; in assay [4], 20%.
Regarding `CC#CCOC(=O)N1CCCN(C2CCC(C#N)(c3ccc(OC)cn3)CC2)CC1` (single isomer, unassigned) [3-32 Isomer 1], the EC50 in assay [1] was more than 20 µM; in assay [2], 0.0224 µM; in assay [3], 0.759 µM; in assay [4] it was more than 20 µM. The Emax in assay [1] was found to be 2%; in assay [2] (setting [5]) it was 106%; in assay [3] (setting [6]), 30%; in assay [4], 0%.
In the case of `CCOC(=O)N1CCCN(C2CCC(C#N)(c3ccncc3)CC2)CC1` (mixture of isomers) [3-12 mixture of isomers], the EC50 was more than 20 µM in assay [1], 0.155 µM in assay [2], 1.07 µM in assay [3] and more than 20 µM in assay [4]. Also, the Emax was 5% in assay [1], 116% in assay [2] (setting [5]), 48% in assay [3] (setting [6]) and 3% in assay [4].

Broadly, the Emax is the size of the effect at its maximum, as opposed to the concentration needed.

The values are drawn from patent publication US10759751B2, “Substituted spirocyclohexanes as muscarinic M1 receptor and/or M4 receptor agonists” (Heptares Therapeutics Limited, priority 2016, dated 2020).
